Measured values as given in patent US10973936B2, “18F-saccharide-folates” (MERCK & CIE, priority 2011, dated 2021).

Key:
[1] = format: physicochemical; details: pH 7.4
Experimental: The distribution coefficient (log D7.4) was determined by the shake flask method. In brief, γ-[^18F]-glucose folate was dissolved in a mixture of phosphate buffer (500 μL, pH 7.4) and n-octanol ([…]) at 20° C. The sample was equilibrated for 15 min in an over-head shaker. The two phases were separated by centrifugation (3 min, 5000 rpm) and 50 μL aliquots were taken from each layer and counted for radioactivity in a γ-counter. The partition coefficient is expressed as the ratio of radioactivity (cpm) in the octanol phase to the one in the PBS phase represents the mean±standard deviation of eight measurements.

[2] = tested on: KB tumor xenografts; test: PET imaging of KB tumor xenografts; format: in vivo; details: for PET images of KB tumor xenografts: 75-105 min p.i.; for specificity of uptake (blocking with folic acid): PET, excess folic acid 10 min prior to radiotracer
Experimental: PET experiments were performed with Explore VISTA PET/CT tomograph (GE), which provides an ultrahigh resolution of less than 0.9 mm. Animals were lightly restrained and injected with 10-14 MBq of γ-[^18F]-glucose folate (100-150 μL per injection) via a lateral tail vein. […] Animals were anesthetized with isoflurane in an air/oxygen mixture. The PET scans were acquired from 75-105 min post-injection. The fused datasets of PET and CT were analyzed with Amira (Version 4) postprocessing software.

[3] = molecular target: T1, folate receptor (Homo sapiens, UniProt P15328); test: In vitro binding affinity assay, displacement of 3H-folic acid on KB cells; details: 3H-folic acid 0.82 nM, 4° C., 30 min; for IC50: three independent experiments, read-out: mean inhibitory concentration of 50% (IC50 value)
T1 construct: endogenous in cells; host or cells: KB cells (human cervical carcinoma), whole-cell suspension
T1 sequence (P15328 25-234): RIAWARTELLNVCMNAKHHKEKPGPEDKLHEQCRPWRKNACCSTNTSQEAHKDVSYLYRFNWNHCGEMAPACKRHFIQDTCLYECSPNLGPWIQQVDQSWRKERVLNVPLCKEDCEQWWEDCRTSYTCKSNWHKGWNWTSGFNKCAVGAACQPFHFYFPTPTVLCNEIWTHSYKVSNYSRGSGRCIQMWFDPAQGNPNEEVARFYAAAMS
Experimental: Binding affinity assays were performed with KB cells derived from human cervical carcinoma, where the folate receptor is overexpressed. The cells were cultured as monolayers in 75 cm^2 flasks at 37° C. in a humidified atmosphere (7.5% CO2). The cells were kept in a special folate-deficient RPMI 1640 medium (FFRPMI 1640; Cell Culture Technologies) supplemented with heat-inactivated fetal calf serum (10%), L-glutamine, penicillin (100 IU/mL), and streptomycin ([…]). The fetal calf serum was the only source of folate in the medium, which is reported to provide a final folate concentration of about 3 nmol/mL, which is at the low end of the physiologic serum concentration in humans.
A cell suspension in pure FFRPMI 1640 medium (no additives, ice-cold) was added into 1.5 mL vials (7000 cells in 240 μL). […] After incubation, the suspension was centrifuged at 3500 rpm and 4° C. for 5 min and the supernatant was removed. By addition of 0.5 mL of 1 N NaOH, the cell pellets were resuspended and lysed at the same time. The lysed cells were stirred in a vortex mixer and transferred into scintillation tubes containing 4 mL of scintillation cocktail (Ultima Gold; Perkin Elmer). Radioactivity was measured using a β-counter (LS6500; Beckman), and the inhibitory concentrations of 50% were determined from displacement curves using Graph Pad Prism 4.0 software.

| Structure (SMILES) | log D7.4 [1] | PET images of KB tumor xenografts [2] | specificity of uptake (blocking with folic acid) [2] | Ki [3] [nM] | IC50 [3] [nM] |
| --- | --- | --- | --- | --- | --- |
| Nc1nc2ncc(CNc3ccc(C(=O)NC(CCC(=O)O)C(=O)NC(Cc4cn(C5OC(CO)C(O)C(O)C5[18F])nn4)C(=O)O)cc3)nc2c(=O)[nH]1 (stereo not drawn) [α-[^18F]-glucose folate] | −4.20±0.06 | excellent images of KB tumor xenografts | highly specific and blocked by natural folic acid | – | – |
| Nc1nc2ncc(CNc3ccc(C(=O)NC(CCC(=O)O)C(=O)NC(Cc4cn(C5OC(CO)C(O)C(O)C5F)nn4)C(=O)O)cc3)nc2c(=O)[nH]1 (stereo not drawn) [α-glucose folate, α-[^19F]-Glucose Folate] | – | – | – | 0.7 ± 0.2 | 1.4 ± 0.2 |
| Nc1nc2ncc(CNc3ccc(C(=O)NC(CCC(=O)NC(Cc4cn(C5OC(CO)C(O)C(O)C5[18F])nn4)C(=O)O)C(=O)O)cc3)nc2c(=O)[nH]1 (stereo not shown) [γ-[^18F]-glucose folate] | −4.21±0.14 | excellent images of KB tumor xenografts | highly specific and blocked by natural folic acid | – | – |
| Nc1nc2ncc(CNc3ccc(C(=O)NC(CCC(=O)NC(Cc4cn(C5OC(CO)C(O)C(O)C5F)nn4)C(=O)O)C(=O)O)cc3)nc2c(=O)[nH]1 (stereo not shown) [γ-glucose folate, γ-[^19F]-Glucose Folate] | – | – | – | 0.8 ± 0.1 | 1.6 ± 0.1 |
